One assay has as its system late watergrass. The assay can be described thus: Test Example 1: herbicidal activity, application before weed generation under submerged conditions (Table 16, symbol A). The format is in vivo, late watergrass (Echinochloa oryzicola). Particulars: 320 g/ha applied herbicide. In outline: (§1)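 Alluvial soil was flooded to 4 cm depth, weed seeds were sown mixed and 2.5-leaf rice seedlings were transplanted. On sowing day, the compound's emulsion, diluted in water to a set dose, was applied to the water surface. Plants grew at 25–30 °C and were scored 0–5 after three weeks.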

For the next assay, the system named is Japanese bulrush. The assay can be described thus: Test Example 1: herbicidal activity, application before weed generation under submerged conditions (Table 16, symbol B). Type of assay: in vivo, Japanese bulrush (Schoenoplectus juncoides). Particulars: 320 g/ha applied herbicide. In outline: as §1
Assay [1] relates to oval-leafed pondweed. The assay can be described thus: Test Example 1: herbicidal activity, application before weed generation under submerged conditions (Table 16, symbol C). The format is in vivo, oval-leafed pondweed (Monochoria vaginalis). Particulars: 320 g/ha applied herbicide. The gist of the method:
as §1

Assay [2] has as its system oval-leafed pondweed. The assay can be described thus: Test Example 2: herbicidal activity, application during weed generation under submerged conditions (Table 17, symbol C). Type of assay: in vivo, oval-leafed pondweed (Monochoria vaginalis). Particulars: AAH 320 g/ha; application during weed generation, submerged conditions. In outline:
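Effect on each weed is rated three weeks post-treatment, using the same scoring criteria as the preceding test. Plants grow from mixed-sown seed in flooded alluvial soil (4 cm water) at 25° C. to 30° C., and are treated at one to two leaves with diluted emulsion dropped onto the water.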

The test system of the next assay is Chinese sprangletop. The assay can be described thus: Test Example 3: herbicidal effect by foliage application, Wagner pot (Table 18, symbol D). The format is in vivo, chinese sprangletop (Leptochloa chinensis). Particulars: 320 g/ha. In outline: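 Plants were sown in alluvial soil held under 0.1–0.5 cm standing water and grown 14 days in a greenhouse at 25–30 °C. An emulsifiable formulation, water-diluted to the set dose, was then sprayed onto the foliage, and effects were scored three weeks later using previously defined criteria.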

The next assay relates to blackgrass. The assay can be described thus: Test Example 4: herbicidal effect by soil treatment (Table 19, symbol J). The format is in vivo, blackgrass (Alopecurus myosuroides). Particulars: 320 g/ha. In outline:
(§2)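 Scoring uses the grading scale of an earlier test, three weeks post-application. Treatment consists of spraying a diluted emulsion formulation across the surface of sterilized diluvial soil in which seeds are buried near 1.5 cm deep; boxes are kept in a greenhouse between 25° C. and 30° C.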

The test system of the next assay is windgrass. The assay can be described thus: Test Example 4: herbicidal effect by soil treatment (Table 19, symbol L). The format is in vivo, windgrass (Apera spica-venti). Particulars: 320 g/ha. The gist of the method:
as §2

The test system of the next assay is persian speedwell. The assay can be described thus: Test Example 4: herbicidal effect by soil treatment (Table 19, symbol R). Type of assay: in vivo, Persian speedwell (Veronica persica). Particulars: 320 g/ha. The gist of the method:
as §2

A further assay relates to southern crabgrass. The assay can be described thus: Test Example 5: herbicidal effect by foliage application, plastic box (Table 20, symbol F). The format is in vivo, southern crabgrass (Digitaria ciliaris). Particulars: foliage application, 320 g/ha, 3 weeks after application. The gist of the method:
(§3)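 Post-emergence foliar test in sterilized diluvial soil. Compound applied as water-diluted emulsion at a predetermined rate to 14-day-old plants; evaluation at three weeks.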

For another assay, the system named is barnyard grass. The assay can be described thus: Test Example 5: herbicidal effect by foliage application, plastic box (Table 20, symbol H). The format is in vivo, barnyard grass (Echinochloa crus-galli). Particulars: foliage application, 320 g/ha, 3 weeks after application. The gist of the method:
as §3

Another assay has as its system lambsquarters. The assay can be described thus: Test Example 5: herbicidal effect by foliage application, plastic box (Table 20, symbol O). Particulars: foliage application, 320 g/ha, 3 weeks after application. The format is in vivo, lambsquarters (Chenopodium album). The gist of the method:
as §3

For the compound `CCCC(=O)Oc1c(C)nn(C)c(=O)c1-c1c(-c2ccc(CC)cc2)sc2ccc(F)cc12` [2-016], the “Herbicidal effect on A: late watergrass (grade 0-5)” value with late watergrass is given as 5 (Herbicidal rate of 90% or more (almost completely withered)). Moreover, the “Herbicidal effect on B: Japanese bulrush (grade 0-5)” value (“Herbicidal effect on B” for short) in the assay with Japanese bulrush was 3 (Herbicidal rate of 40% or more and less than 70%). The “Herbicidal effect on C: oval-leafed pondweed (grade 0-5)” value (shortened to “Herbicidal effect on C”) in the assay on oval-leafed pondweed [1] is 5 (Herbicidal rate of 90% or more (almost completely withered)). Moreover, the “herbicidal effect rating, C: oval-leafed pondweed” value (“herbicidal effect rating, C” below) in the assay with oval-leafed pondweed [2] is 4 (Herbicidal rate of 70% or more and less than 90%). For the same compound, the “herbicidal effect on D (Chinese sprangletop), rating 0-5” value (shortened to “herbicidal effect on D”) in the assay on Chinese sprangletop is listed as 5 (Herbicidal rate of 90% or more (almost completely withered)). Further, the “herbicidal effect rating, J: blackgrass” value with blackgrass is 2 (Herbicidal rate of 20% or more and less than 40%). For the same compound, the “herbicidal effect rating, L: windgrass” value in the assay with windgrass is 1 (Herbicidal rate of 5% or more and less than 20%). In addition, the “herbicidal effect rating, R: persian speedwell” value (“herbicidal effect rating, R” below) in the assay with persian speedwell was 4 (Herbicidal rate of 70% or more and less than 90%). Moreover, in the assay with southern crabgrass, the “effect on southern crabgrass (F)” value was 0 (Herbicidal rate of 5% or less (almost no effect)). Further, the “effect on barnyard grass (H)” value in the assay on barnyard grass was 3 (Herbicidal rate of 40% or more and less than 70%). Further, the “effect on lambsquarters (O)” value with lambsquarters is listed as 5 (Herbicidal rate of 90% or more (almost completely withered)).

Consider `C=Cc1ccc(-c2sc3ccc(F)cc3c2-c2c(O)c(C)nn(C)c2=O)cc1` [2-018], for which, in the assay with late watergrass, the “Herbicidal effect on A: late watergrass (grade 0-5)” value is 0 (Herbicidal rate of 5% or less (almost no effect)). Moreover, in the assay on Japanese bulrush, the “Herbicidal effect on B” value was 3 (Herbicidal rate of 40% or more and less than 70%). In addition, in the assay with oval-leafed pondweed [1], the “Herbicidal effect on C” value is given as 0 (Herbicidal rate of 5% or less (almost no effect)). The “herbicidal effect rating, C” value in the assay on oval-leafed pondweed [2] is 3 (Herbicidal rate of 40% or more and less than 70%). Moreover, in the assay with Chinese sprangletop, the “herbicidal effect on D” value was 4 (Herbicidal rate of 70% or more and less than 90%). Besides, the “herbicidal effect rating, J: blackgrass” value in the assay on blackgrass is listed as 0 (Herbicidal rate of 5% or less (almost no effect)). Moreover, the “herbicidal effect rating, L: windgrass” value in the assay on windgrass is 2 (Herbicidal rate of 20% or more and less than 40%). The “herbicidal effect rating, R” value in the assay with persian speedwell was 4 (Herbicidal rate of 70% or more and less than 90%). In addition, the “effect on southern crabgrass (F)” value in the assay with southern crabgrass is 1 (Herbicidal rate of 5% or more and less than 20%). Moreover, the “effect on barnyard grass (H)” value in the assay on barnyard grass was 4 (Herbicidal rate of 70% or more and less than 90%). For the same compound, in the assay with lambsquarters, the “effect on lambsquarters (O)” value is 5 (Herbicidal rate of 90% or more (almost completely withered)).

As to `COCc1ccc(-c2sc3ccc(F)cc3c2-c2c(O)c(C)nn(C)c2=O)cc1` [2-022], the “Herbicidal effect on A: late watergrass (grade 0-5)” value in the assay with late watergrass is 2 (Herbicidal rate of 20% or more and less than 40%). The “Herbicidal effect on B” value in the assay with Japanese bulrush is reported as 5 (Herbicidal rate of 90% or more (almost completely withered)). The “Herbicidal effect on C” value in the assay with oval-leafed pondweed [1] is 5 (Herbicidal rate of 90% or more (almost completely withered)). Moreover, in the assay with oval-leafed pondweed [2], the “herbicidal effect rating, C” value was 4 (Herbicidal rate of 70% or more and less than 90%). In addition, the “herbicidal effect on D” value with Chinese sprangletop was 4 (Herbicidal rate of 70% or more and less than 90%). Further, the “herbicidal effect rating, J: blackgrass” value in the assay on blackgrass is 4 (Herbicidal rate of 70% or more and less than 90%). Besides, the “herbicidal effect rating, L: windgrass” value in the assay with windgrass was 5 (Herbicidal rate of 90% or more (almost completely withered)). The “herbicidal effect rating, R” value with persian speedwell is recorded as 5 (Herbicidal rate of 90% or more (almost completely withered)). Besides, in the assay on southern crabgrass, the “effect on southern crabgrass (F)” value was 5 (Herbicidal rate of 90% or more (almost completely withered)). In the assay on barnyard grass, the “effect on barnyard grass (H)” value is on record as 5 (Herbicidal rate of 90% or more (almost completely withered)). Besides, the “effect on lambsquarters (O)” value in the assay on lambsquarters is 4 (Herbicidal rate of 70% or more and less than 90%).
